For test [1], the target named is T1, p38alpha (Homo sapiens, UniProt Q16539).
T1 construct: purchased Invitrogen PV3304
Put plainly: P38Alpha enzyme inhibition assay (Alphascreen kinase activity assay). Format: biochemical. Conditions: 100 pM p38alpha, 250 μM ATP, 2 hours pre-incubation at 25° C., read-out: p38α inhibition (IC50 values). In outline: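 AlphaScreen read-out: after an EDTA stop, an anti-phospho-ATF2 antibody with Protein A acceptor and donor beads measured substrate phosphorylation. Compounds sat 2 h at 25°C with 100 pM p38α and 0.3 µg/ml ATF-2 fusion protein (pH 7.5, 1% DMSO) before 250 µM ATP was added for 1 h. IC50 from dose-response.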
On the technique in general: Bead proximity is the source of the signal in Alpha formats.

Test [2] has as its system LPS-stimulated TNFα release from PBMCs. Put plainly: LPS-stimulated PBMC TNFα release assay. Format: cell-based. Conditions: inhibition of TNFα release, human PBMCs, LPS 10 ng/ml, 18 h, ELISA, read-out: p38α inhibition (IC50 values). The procedure, abridged:
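TNFα in supernatants measured by ELISA after 18 h LPS (10 ng/ml) challenge of human PBMCs given 1 h compound pretreatment at 37 °C in medium with 1% FBS. Percent inhibition versus control release fitted to dose-response curves for IC50; at least three independent runs.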
A general note: ELISA stands for enzyme-linked immunosorbent assay.

Results on eight molecules are retold here after US9315503B2, “Kinase inhibitors” (CHIESI FARMACEUTICI S.p.A., priority 2011, dated 2016).

One may read the IC50 as the concentration at which inhibition is half-maximal.

T1 sequence (Q16539 whole entry): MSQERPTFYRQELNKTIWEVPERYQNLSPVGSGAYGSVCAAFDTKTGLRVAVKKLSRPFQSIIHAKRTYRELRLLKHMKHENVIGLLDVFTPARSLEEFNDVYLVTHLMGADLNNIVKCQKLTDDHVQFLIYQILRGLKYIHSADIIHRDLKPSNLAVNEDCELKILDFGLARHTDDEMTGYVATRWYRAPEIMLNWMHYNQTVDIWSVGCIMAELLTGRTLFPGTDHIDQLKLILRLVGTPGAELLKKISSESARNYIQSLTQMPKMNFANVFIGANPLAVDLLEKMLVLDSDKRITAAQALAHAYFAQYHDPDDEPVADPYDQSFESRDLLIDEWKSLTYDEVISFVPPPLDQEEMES

Regarding `Cc1ccc(-n2nc(C(C)(C)C)cc2NC(=O)N[C@H]2CC[C@@H](Oc3ccc4nnc(N(C)CCN(C)C)n4c3)c3ccccc32)cc1` [Example 43, 1-(5-tert-Butyl-2-p-tolyl-2H-pyrazol-3-yl)-3-((1S,4R)-4-{3-[(2-dimethylamino-ethyl)-methyl-amino]-[1,2,4]triazolo[4,3-a]pyridin-6-yloxy}-1,2,3,4-tetrahydro-naphthalen-1-yl)-urea], the IC50 in test [1] and in test [2] was under 10 nM each time.
For `CC(C)(C)c1cc(NC(=O)N[C@H]2CC[C@@H](Oc3ccc4nnc(N5CCCCC5)n4c3)c3ccccc32)n(-c2cccc(CN3CCCCC3)c2)n1` [Example 44, 1-[5-tert-Butyl-2-(3-piperidin-1-ylmethyl-phenyl)-2H-pyrazol-3-yl]-3-[(1S,4R)-4-(3-piperidin-1-yl-[1,2,4]triazolo[4,3-a]pyridin-6-yloxy)-1,2,3,4-tetrahydro-naphthalen-1-yl]-urea], the IC50 in test [1] and in test [2] was under 10 nM throughout.
Regarding `Cc1ccc(-n2nc(C(C)(C)C)cc2NC(=O)N[C@H]2CC[C@@H](Oc3ccc4nnc([C@]5(C)CCCN5C)n4c3)c3ccccc32)cc1` [Example 47, 1-(5-tert-Butyl-2-p-tolyl-2H-pyrazol-3-yl)-3-{(1S,4R)-4-[3-((S)-1,2-dimethyl-pyrrolidin-2-yl)-[1,2,4]triazolo[4,3-a]pyridin-6-yloxy]-1,2,3,4-tetrahydro-naphthalen-1-yl}-urea], the IC50 in test [1] and in test [2] was under 10 nM each time.
Take `CC(C)(C)c1cc(NC(=O)N[C@H]2CC[C@@H](Oc3ccc4nnc(N5CCCCC5)n4c3)c3ccccc32)n(-c2cccc(COCCO)c2)n1` [Example 48, 1-{5-tert-Butyl-2-[3-(2-hydroxy-ethoxymethyl)-phenyl]-2H-pyrazol-3-yl}-3-[(1S,4R)-4-(3-piperidin-1-yl-[1,2,4]triazolo[4,3-a]pyridin-6-yloxy)-1,2,3,4-tetrahydro-naphthalen-1-yl]-urea]: the IC50 in test [1] and in test [2] was under 10 nM in each case.
For the molecule `Cc1ccc(-n2nc(C(C)(C)C)cc2NC(=O)N[C@H]2CC[C@@H](Oc3ccc4nnc(N5CCCOCC5)n4c3)c3ccccc32)cc1` [Example 49, 1-(5-tert-Butyl-2-p-tolyl-2H-pyrazol-3-yl)-3-[(1S,4R)-4-(3-[1,4]oxazepan-4-yl-[1,2,4]triazolo[4,3-a]pyridin-6-yloxy)-1,2,3,4-tetrahydro-naphthalen-1-yl]-urea], the IC50 in test [1] and in test [2] was under 10 nM throughout.
For the molecule `CC(C)(C)c1cc(NC(=O)N[C@H]2CC[C@@H](Oc3ccc4nnc(N5CCCCC5)n4c3)c3ccccc32)n(-c2cccc(CN3CCN(CCO)CC3)c2)n1` [Example 50, 1-(5-tert-Butyl-2-{3-[4-(2-hydroxy-ethyl)-piperazin-1-ylmethyl]-phenyl}-2H-pyrazol-3-yl)-3-[(1S,4R)-4-(3-piperidin-1-yl-[1,2,4]triazolo[4,3-a]pyridin-6-yloxy)-1,2,3,4-tetrahydro-naphthalen-1-yl]-urea], the IC50 in test [1] and in test [2] was under 10 nM throughout.
For the molecule `CC(C)(C)c1cc(NC(=O)N[C@H]2CC[C@@H](Oc3ccc4nnc(N5CCCCC5)n4c3)c3ccccc32)n(-c2cccc(CN3CCC(O)CC3)c2)n1` [Example 52, 1-{5-tert-Butyl-2-[3-(4-hydroxy-piperidin-1-ylmethyl)-phenyl]-2H-pyrazol-3-yl}-3-[(1S,4R)-4-(3-piperidin-1-yl-[1,2,4]triazolo[4,3-a]pyridin-6-yloxy)-1,2,3,4-tetrahydro-naphthalen-1-yl]-urea], the IC50 in test [1] and in test [2] was under 10 nM in each case.
Regarding `CC(C)(C)c1cc(NC(=O)N[C@H]2CC[C@@H](Oc3ccc4nnc(N5CCCCC5)n4c3)c3ccccc32)n(-c2cccc(SCCO)c2)n1` [Example 53, 1-{5-tert-Butyl-2-[3-(2-hydroxy-ethylsulfanyl)-phenyl]-2H-pyrazol-3-yl}-3-[(1S,4R)-4-(3-piperidin-1-yl-[1,2,4]triazolo[4,3-a]pyridin-6-yloxy)-1,2,3,4-tetrahydro-naphthalen-1-yl]-urea], the half-maximal inhibitory concentration (IC50) in test [1] and in test [2] was under 10 nM in each case.
